What was measured:
Type in all cases: toxicity, cell-based
HEK-293T = assay: Incucyte cell viability with HEK293T; settings: human, 10 µM, compound concentration 10 uM
Fibroblast = assay: Incucyte cell viability with human fibroblast; settings: 10 µM, compound concentration 10 uM
U2OS = assay: Incucyte cell viability with U2OS; settings: human, 10 µM, compound concentration 10 uM
[1] = 0 h, replicate number 1, timepoint 0 hours
[2] = 0 h, replicate number 2, timepoint 0 hours
[3] = 6 h, replicate number 1, timepoint 6 hours
[4] = 6 h, replicate number 2, timepoint 6 hours
[5] = 12 h, replicate number 1, timepoint 12 hours
[6] = 18 h, replicate number 1, timepoint 18 hours
[7] = 24 h, replicate number 1, timepoint 24 hours
[8] = 24 h, replicate number 2, timepoint 24 hours
[9] = 12 h, replicate number 2, timepoint 12 hours
[10] = 18 h, replicate number 2, timepoint 18 hours
Also: filed as whole numbers so only -1 and 0 and 1 occur.

Compound	Growth Rate (HEK-293T; [1])	Growth Rate (HEK-293T; [2])	Growth Rate (HEK-293T; [3])	Growth Rate (HEK-293T; [4])	Growth Rate (HEK-293T; [5])	Growth Rate (HEK-293T; [6])	Growth Rate (HEK-293T; [7])	Growth Rate (HEK-293T; [8])	Growth Rate (Fibroblast; [1])	Growth Rate (Fibroblast; [3])	Growth Rate (Fibroblast; [5])	Growth Rate (Fibroblast; [6])	Growth Rate (Fibroblast; [7])	Growth Rate (U2OS; [5])	Growth Rate (U2OS; [6])	Growth Rate (U2OS; [7])	Growth Rate (HEK-293T; [9])	Growth Rate (Fibroblast; [8])	Growth Rate (U2OS; [1])	Growth Rate (U2OS; [3])	further results
Nc1nc(NCc2ccccc2)nc(-c2ccccc2CO)n1 [Ogerin]	1	0	0	1	1	1	0	1	1	0	0	0	0	1	1	1	–	–	–	–	Growth Rate (U2OS; [2]): 0; Growth Rate (U2OS; [4]): 1
O=C(O)C[C@H]1CCc2c1[nH]c1ccc(OCc3ccc(C4CCCC4)c(C(F)(F)F)c3)cc21 [ETRASIMOD]	0	–	1	–	0	0	0	–	0	1	1	1	0	0	1	1	1	1	0	–	Growth Rate (HEK-293T; [10]): 1; Growth Rate (Fibroblast; [2]): 1; Growth Rate (Fibroblast; [4]): 0; Growth Rate (U2OS; [2]): 1; Growth Rate (U2OS; [4]): 0; Growth Rate (U2OS; [9]): 1
O=C(Nc1cnc(Oc2ccc(F)cc2)nc1)N1CCc2ncccc2[C@@H]1c1ccc(F)cc1 [BAY-899]	0	–	0	1	0	0	0	–	0	1	1	1	1	1	1	0	–	–	0	–	Growth Rate (U2OS; [8]): 1
O=c1nc(-c2ccccn2)sc2ccccc12 [BTZO-1]	0	1	1	–	1	1	1	–	1	0	0	0	0	0	1	1	–	1	0	1	Growth Rate (Fibroblast; [2]): 0; Growth Rate (Fibroblast; [4]): 1; Growth Rate (Fibroblast; [9]): 1; Growth Rate (Fibroblast; [10]): 1; Growth Rate (U2OS; [9]): 1; Growth Rate (U2OS; [10]): 0; Growth Rate (U2OS; [8]): 0
N[C@H](C(=O)O)c1ccc(C(=O)O)c(C(=O)O)c1	0	–	1	–	1	1	1	–	0	1	1	1	0	1	1	1	–	–	0	–	Growth Rate (U2OS; [4]): 1
CN(C)C(=O)c1ccc(-c2cc(C(=O)N[C@@H]3CCc4ccccc43)no2)cc1O	1	–	–	0	–	–	1	–	0	1	0	1	0	0	0	1	0	1	0	0	Growth Rate (U2OS; [9]): 1; Growth Rate (U2OS; [10]): 1
C[C@H]1CC(=O)Nc2cc(C(=O)NCCC3CC3)ccc2N1C(=O)N1CC2CC2C1 (stereo partly specified)	0	1	–	1	–	1	0	1	0	0	1	0	1	1	1	1	0	0	1	0	Growth Rate (Fibroblast; [9]): 0
CCOc1cc(N2CCC(O)CC2)ccc1Nc1ncc2c(n1)N(C)c1ccccc1C(=O)N2C	0	1	–	1	–	–	1	0	1	1	1	1	1	1	1	1	1	–	0	0	Growth Rate (HEK-293T; [10]): 1; Growth Rate (Fibroblast; [4]): 0; Growth Rate (U2OS; [2]): 1
N#Cc1c(O)nc(SCc2cccc(F)c2F)nc1C1CC1	0	–	1	–	1	1	1	0	0	1	1	1	1	1	1	1	–	–	0	–	–
Cc1cccc(-c2cnc3occ(-c4ccc(C(=O)O)c(C5CCCC5)c4)c3c2)c1	1	0	–	–	–	1	1	–	–	0	0	0	0	1	0	1	–	–	0	0	Growth Rate (Fibroblast; [2]): 1; Growth Rate (U2OS; [9]): 0; Growth Rate (U2OS; [10]): 1

— ChEMBL document CHEMBL4689842, “EUbOPEN Chemogenomics Library wave 1” (2021)
